Molecules are shown by their SMILES.

This is an account of results in patent publication US9126938B2, “Phosphatidylcholine transfer protein inhibitors” (The Brigham and Women's Hospital, Inc., priority 2009, dated 2015).

One assay deals with T1, PC-TP (Homo sapiens, UniProt Q9UKL6).
T1 sequence (Q9UKL6 1-214): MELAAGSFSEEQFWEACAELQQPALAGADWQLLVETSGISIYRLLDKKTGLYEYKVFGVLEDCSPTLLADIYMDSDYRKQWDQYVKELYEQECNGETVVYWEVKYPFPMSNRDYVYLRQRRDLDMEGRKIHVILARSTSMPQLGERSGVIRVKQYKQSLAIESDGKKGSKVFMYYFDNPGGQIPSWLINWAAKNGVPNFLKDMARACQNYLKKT
Put plainly: PC-TP inhibition assay (Wagle et al. method). The format is biochemical. Conditions: for IC50: Table 1, concentration value; for Activity (PC-TP), result in words: compound fluorescence in the fluorescence-based assay. As to the method:
(§1) The compounds in Table 1 and 2 were assayed for their ability to inhibit PC-TP and StarD10, respectively, using a known assay method (see Wagle et al., 2008. Anal. Biochem. 383:85-92, which is incorporated herein by reference in its entirety). Further, certain compounds were also tested for their ability to inhibit StarD7 (see Table 2).

In the next assay the target is T2, StarD10 (Homo sapiens, UniProt Q9Y365).
T2 sequence (Q9Y365 1-291): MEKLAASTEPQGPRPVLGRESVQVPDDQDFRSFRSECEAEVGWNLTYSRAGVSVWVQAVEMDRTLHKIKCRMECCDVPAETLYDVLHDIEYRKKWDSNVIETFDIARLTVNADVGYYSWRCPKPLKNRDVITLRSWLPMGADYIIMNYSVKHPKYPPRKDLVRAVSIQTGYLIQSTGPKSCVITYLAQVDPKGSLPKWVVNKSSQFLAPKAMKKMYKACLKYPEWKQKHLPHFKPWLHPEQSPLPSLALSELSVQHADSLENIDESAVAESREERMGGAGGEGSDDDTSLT
Put plainly: StarD10 inhibition assay. The format is biochemical. As to the method:
as §1

By IC50 is commonly meant the concentration that gives 50% inhibition. `Cc1cc(C)nc(NS(=O)(=O)c2ccc(NC(=S)NC(=O)c3ccc(Cl)cc3Cl)cc2)n1` [Compound 1, 2,4-dichloro-N-(4-(N-(4,6-dimethyl-pyrimidin-2-yl)sulfamoyl)phenylcarbamothioyl) benzamide] had an IC50 against PC-TP of 3.2 µM. That is a single-digit micromolar value.
What is called inhibition is the drop in the measured response relative to a control, in per cent. The low end stands for a response near the control, the high end for a response far below the control. `Cc1cc(C)nc(NS(=O)(=O)c2ccc(NC(=S)NC(=O)c3ccc(F)cc3)cc2)n1` [Compound 2, N-(4-(N-(4,6-dimethylpyrimidin-2-yl)sulfamoyl)phenylcarbamothioyl)-4-fluorobenzamide] came in with an inhibition at 100 µM against PC-TP of 55%.
The compound `Cc1cc(C)nc(NS(=O)(=O)c2ccc(NC(=S)NC(=O)c3ccccc3)cc2)n1` [Compound 3, N-(4-(N-(4,6-dimethylpyrimidin-2-yl)sulfamoyl)phenylcarbamothioyl) benzamide] yielded an inhibition at 100 µM on PC-TP of 45%.
With `Cc1cc(C)nc(NS(=O)(=O)c2ccc(NC(=O)NC(=O)c3ccccc3Cl)cc2)n1` [Compound 5, 2-chloro-N-(4-(N-(4,6-dimethylpyrimidin-2-yl)sulfamoyl)phenylcarbamoyl) benzamide], at PC-TP, the IC50 came to 30 µM.
Still for that read-out and setting: for `Cc1cc(C)nc(NS(=O)(=O)c2ccc(NC(=O)NC(=O)c3ccc(Cl)cc3)cc2)n1` [Compound 6, 4-chloro-N-(4-(N-(4,6-dimethylpyrimidin-2-yl)sulfamoyl)phenylcarbamoyl) benzamide] the value was 26 µM.
The same measure, in the same setting: for `Cc1cc(C)nc(NS(=O)(=O)c2ccc(NC(=O)NC(=O)c3ccc(Cl)cc3Cl)cc2)c1` [Compound 7, 2,4-dichloro-N-(4-(N-(4,6-dimethylpyridin-2-yl)sulfamoyl)phenylcarbamoyl) benzamide] the value was 5 µM.
For the compound `Cc1cc(C)nc(NS(=O)(=O)c2ccc(NC(=O)NC(=O)c3cccc(Cl)c3Cl)cc2)n1` [Compound 9, 2,3-dichloro-N-(4-(N-(4,6-dimethylpyrimidin-2-yl)sulfamoyl)phenylcarbamoyl) benzamide], the IC50 at PC-TP was 3.2 µM; at StarD10, 39 µM.
At PC-TP, `Cc1cc(C)nc(NS(=O)(=O)c2ccc(NC(=O)NC(=O)c3ccc(Cl)c(Cl)c3)cc2)n1` [Compound 10, 3,4-dichloro-N-(4-(N-(4,6-dimethylpyrimidin-2-yl)sulfamoyl)phenyl-carbamoyl)benzamide] yielded an IC50 of 30 µM.
On PC-TP, `Cc1cc(C)nc(NS(=O)(=O)c2ccc(N(C)C(=O)NC(=O)c3ccc(Cl)cc3Cl)cc2)n1` [Compound 11, 2,4-dichloro-N-((4-(N-(4,6-dimethylpyrimidin-2-yl)sulfamoyl)phenyl)(methyl)carbamoyl)benzamide] yielded a 50% inhibitory concentration (IC50) greater than 50 µM.
With `Cc1cc(C)nc(N(C)S(=O)(=O)c2ccc(NC(=O)NC(=O)c3ccc(Cl)cc3Cl)cc2)n1` [Compound 12, 2,4-dichloro-N-(4-(N-(4,6-dimethylpyrimidin-2-yl)-N-methylsulfamoyl)phenylcarbamoyl) benzamide], the IC50 on PC-TP is 2.3 µM; on StarD10, 11 µM.
For `Cc1cc(NS(=O)(=O)c2ccc(NC(=O)NC(=O)c3ccc(Cl)cc3Cl)cc2)nc(C)n1` [Compound 13, 2,4-dichloro-N-(4-(N-(2,6-dimethylpyrimidin-4-yl)sulfamoyl)phenylcarbamoyl) benzamide] the same measures were 2.3 µM and 20 µM.
On PC-TP, `Cc1cc(C)cc(NS(=O)(=O)c2ccc(NC(=O)NC(=O)c3ccc(Cl)cc3Cl)cc2)c1` [Compound 14] had a half-inhibitory concentration (IC50) of 20 µM.
As for `Cc1cc(C)nc(NS(=O)(=O)c2ccc(NC(=O)N(C)C(=O)c3ccc(Cl)cc3Cl)cc2)n1` [Compound 15, 2,4-dichloro-N-(4-(N-(4,6-dimethylpyrimidin-2-yl)sulfamoyl)phenylcarbamoyl)-N-methylbenzamide], the IC50 against PC-TP was 8 µM; against StarD10 it was 17 µM.
In turn, `COc1ccc(NC(=O)C(Sc2cccc[n+]2[O-])c2ccccc2)cc1Cl` (centres unmarked) [Compound 17, 2-(2-(3-chloro-4-methoxyphenylamino)-2-oxo-1-phenylethylthio)pyridine 1-oxide] displayed a half-inhibitory concentration (IC50) against PC-TP of 20 µM. This lies in the double-digit micromolar range.
Still for that read-out and setting: for `O=C(Nc1cccc(C(F)(F)F)c1)C(Sc1cccc[n+]1[O-])c1ccccc1` (centres unmarked) [Compound 19, 2-(2-oxo-1-phenyl-2-(3-(trifluoromethyl)phenylamino)ethylthio)pyridine 1-oxide] the value was 11 µM; for `O=C(Nc1cc(C(F)(F)F)cc(C(F)(F)F)c1)C(Sc1cccc[n+]1[O-])c1ccccc1` (centres unmarked) [Compound 20, 2-(2-(3,5-bis(trifluoromethyl)phenylamino)-2-oxo-1-phenylethylthio)pyridine 1-oxide], 13 µM; for `O=C(Nc1cc(Cl)cc(Cl)c1)C(Sc1cccc[n+]1[O-])c1ccccc1Cl` (centres unmarked) [Compound 21, 2-(1-(2-chlorophenyl)-2-(3,5-dichlorophenylamino)-2-oxoethylthio)pyridine 1-oxide], 15 µM.
Still for that read-out and setting: for `COc1ccccc1C(Sc1cccc[n+]1[O-])C(=O)Nc1cc(Cl)cc(Cl)c1` (centres unmarked) [Compound 22, 2-(2-(3,5-dichlorophenylamino)-1-(2-methoxyphenyl)-2-oxoethylthio)pyridine 1-oxide] the value was 4.1 µM; for `O=C(Nc1cc(Cl)cc(Cl)c1)C(Sc1cccc[n+]1[O-])c1cccc2ccccc12` (centres unmarked) [Compound 23, 2-(2-(3,5-dichlorophenylamino)-1-(naphthalen-1-yl)-2-oxoethylthio)pyridine 1-oxide], 12 µM.
In turn, `O=C(Nc1cc(Cl)cc(Cl)c1)C(Sc1cc2ccccc2c[n+]1[O-])c1ccccc1` (centres unmarked) [Compound 24, 3-(2-(3,5-dichlorophenylamino)-2-oxo-1-phenylethylthio)isoquinoline 2-oxide] registered an inhibition at 30 µM against PC-TP (at 30 μM) of 25%.
Consider `COc1ccc(C(Sc2cccc[n+]2[O-])C(=O)Nc2cc(Cl)cc(Cl)c2)cc1` (centres unmarked) [Compound 25, 2-(2-(3,5-dichlorophenylamino)-1-(4-methoxyphenyl)-2-oxoethylthio)pyridine 1-oxide], for which the inhibition at 50 µM on PC-TP was 30%.
Still for that read-out and setting: then `O=C(Nc1cc(Cl)cc(Cl)c1)C(Sc1cccc[n+]1[O-])c1ccc2ccccc2c1` (centres unmarked) [Compound 26, 2-(2-(3,5-dichlorophenylamino)-1-(naphthalen-2-yl)-2-oxoethylthio)pyridine 1-oxide], with 20%.
With `O=C(Nc1ccc(Cl)cc1C(F)(F)F)C(Sc1cccc[n+]1[O-])c1ccccc1` (centres unmarked) [Compound 28, 2-(2-(4-chloro-2-(trifluoromethyl)phenylamino)-2-oxo-1-phenylethylthio)pyridine 1-oxide], on PC-TP, the half-maximal inhibitory concentration (IC50) is roughly 50 µM.
With `CCN(CC)CCN(C(=O)Nc1ccc(S(=O)(=O)Nc2nc(C)cc(C)n2)cc1)C(=O)c1ccc(Cl)cc1Cl` [Compound 29, 2,4-dichloro-N-(2-(diethylamino)ethyl)-N-((4-(N-(4,6-dimethylpyrimidin-2-yl)sulfamoyl)phenyl)carbamoyl)benzamide], the “Activity (PC-TP), result in words” value on PC-TP was “High fluoroescense”.
On to `CCN(CC)CCN(c1nc(C)cc(C)n1)S(=O)(=O)c1ccc(NC(=O)NC(=O)c2ccc(Cl)cc2Cl)cc1` [Compound 30, 2,4-dichloro-N-((4-(N-(2-(diethylamino)ethyl)-N-(4,6-dimethylpyrimidin-2-yl)sulfamoyl)phenyl)carbamoyl)benzamide], for which, on PC-TP, the “Activity (PC-TP), result in words” value is recorded as “High fluorescense”.
As for `O=C(Nc1cc(C(F)(F)F)ccc1Cl)C(Sc1cccc[n+]1[O-])c1ccccc1` (centres unmarked) [Compound 31, 2-(2-(2-chloro-5-(trifluoromethyl)phenylamino)-2-oxo-1-phenylethylthio)pyridine 1-oxide], the half-maximal inhibitory concentration (IC50) at PC-TP was greater than 100 µM.
The compound `CCOc1ccccc1NC(=O)C(Sc1cccc[n+]1[O-])c1ccccc1` (centres unmarked) [Compound 32, 2-(2-(2-ethoxyphenylamino)-2-oxo-1-phenylethylthio)pyridine 1-oxide] showed an IC50 at PC-TP greater than 100 µM.
`O=C(Nc1ccccc1Cl)C(Sc1cccc[n+]1[O-])c1ccccc1` (centres unmarked) [Compound 33, 2-(2-(2-chlorophenylamino)-2-oxo-1-phenylethylthio)pyridine 1-oxide]: the results for the half-inhibitory concentration (IC50) against PC-TP and against StarD10 were 15 µM and 23 µM, respectively.
Take `COc1ccccc1NC(=O)C(Sc1cccc[n+]1[O-])c1ccccc1` (centres unmarked) [Compound 34, 2-(2-(2-methoxyphenylamino)-2-oxo-1-phenylethylthio)pyridine 1-oxide]: the values for the IC50 against PC-TP and on StarD10 were 4 µM and 15 µM, respectively.
